Experimental findings from ChEMBL document CHEMBL4266045, “Understanding Molecular Drivers of Melanin Binding To Support Rational Design of Small Molecule Ophthalmic Drugs” (J Med Chem, 2018) are described below.

What is called logD is lipophilicity at a set pH, counting ionised and neutral species. A lower logD goes with a more hydrophilic compound.

The test system of series [1] is Sepia officinalis. The series can be described thus: Binding affinity to Sepia officinalis melanin assessed as fraction unbound at 2 uM after 2 hrs by high-throughput screening assay.
The nature of series [2]: Lipophilicity, log D of compound. The note with it: octanol/water.

For the compound `CN(C)c1nc2ccc(Cl)cc2s1`, in series [1], the Fu was 0.2%. The compound further gave a logD in series [2] of 2.04.
The like results for `CCCCN1CCC(CCC(=O)c2cc(Cl)c(N)cc2OC)CC1` were, in that order, 0.8% and 1.91.
For the compound `Nc1nc2ccc(OC(F)(F)F)cc2s1`, the Fu in series [1] was 48%.
For `Cc1ccccc1Nc1ncnc2c1oc1ccccc12`, the Fu in series [1] is 34%. In addition, the pH-dependent lipophilicity (logD) in series [2] amounted to 3.77.
In the same order, the values of `COc1cc(N)c(Cl)cc1C(=O)CCC1CCNCC1` are 34% and 0.01.
In the same order, the values of `c1ccc2c(c1)oc1c(Nc3ccncc3)ncnc12` are 0.1% and 2.98.
